Test results published in PubChem BioAssay (NCI).
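Cultured in 96-well plates, cells were exposed to test compound for 48 hours across five concentrations. GI50 is the concentration that inhibits growth by half. The concentration for full growth arrest is given as TGI.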

How the values were obtained:
Experiment in all cases: growth of human tumour cells (NCI), 48 h
T-47D breast = system: T-47D breast
HCC-2998 colon = system: HCC-2998 colon
K-562 leukemia = system: K-562 leukemia
TK-10 renal = system: TK-10 renal
SK-MEL-5 melanoma = system: SK-MEL-5 melanoma
OVCAR-5 ovarian = system: OVCAR-5 ovarian
NCI-H522 lung = system: NCI-H522 lung
OVCAR-4 ovarian = system: OVCAR-4 ovarian
HCT-15 colon = system: HCT-15 colon
MDA-MB-231 breast = system: MDA-MB-231 breast
HT29 colon = system: HT29 colon
HCT-116 colon = system: HCT-116 colon
RPMI-8226 leukemia = system: RPMI-8226 leukemia
HOP-62 NSCLC = system: HOP-62 NSCLC
MOLT-4 leukemia = system: MOLT-4 leukemia
NCI/ADR-RES ovarian = system: NCI/ADR-RES ovarian
NCI-H226 lung = system: NCI-H226 lung
A498 renal = system: A498 renal
A549 NSCLC = system: A549 NSCLC
MALME-3M melanoma = system: MALME-3M melanoma
OVCAR-8 ovarian = system: OVCAR-8 ovarian
U251 CNS = system: U251 CNS
MDA-MB-435 = system: MDA-MB-435
LOX IMVI melanoma = system: LOX IMVI melanoma
NCI-H460 lung = system: NCI-H460 lung
SR leukemia = system: SR leukemia
MCF7 breast = system: MCF7 breast
UACC-257 melanoma = system: UACC-257 melanoma
SNB-19 CNS = system: SNB-19 CNS
SF-295 CNS = system: SF-295 CNS
SK-OV-3 ovarian = system: SK-OV-3 ovarian
HOP-92 NSCLC = system: HOP-92 NSCLC
M14 melanoma = system: M14 melanoma
SW-620 colon = system: SW-620 colon
CAKI-1 renal = system: CAKI-1 renal
SK-MEL-2 melanoma = system: SK-MEL-2 melanoma
DU-145 prostate = system: DU-145 prostate
NCI-H23 lung = system: NCI-H23 lung
786-0 renal = system: 786-0 renal
SK-MEL-28 melanoma = system: SK-MEL-28 melanoma
KM12 colon = system: KM12 colon
SN12C renal = system: SN12C renal
COLO 205 colon = system: COLO 205 colon
UO-31 renal = system: UO-31 renal
IGROV1 ovarian = system: IGROV1 ovarian
PC-3 prostate = system: PC-3 prostate
OVCAR-3 ovarian = system: OVCAR-3 ovarian
SF-539 CNS = system: SF-539 CNS
SNB-75 CNS = system: SNB-75 CNS
RXF 393 renal = system: RXF 393 renal
SF-268 CNS = system: SF-268 CNS
CCRF-CEM leukemia = system: CCRF-CEM leukemia
ACHN renal = system: ACHN renal
BT-549 breast = system: BT-549 breast
UACC-62 melanoma = system: UACC-62 melanoma
HS 578T breast = system: HS 578T breast

`COc1ccc(CCN=C2NC(=O)/C(=C/c3ccc4ncccc4c3)S2)cc1` was tested, and the GI50 (T-47D breast) was greater than 25 µM, the TGI (T-47D breast) was greater than 25 µM and the GI50 (HCC-2998 colon) was greater than 25 µM. For the same molecule, the TGI (HCC-2998 colon) was greater than 25 µM, the GI50 (K-562 leukemia) was greater than 25 µM and the TGI (K-562 leukemia) was greater than 25 µM. For the same molecule, the GI50 (TK-10 renal) was greater than 25 µM, the TGI (TK-10 renal) was greater than 25 µM and the GI50 (SK-MEL-5 melanoma) was greater than 25 µM. It also gave a TGI (SK-MEL-5 melanoma) greater than 25 µM, a GI50 (OVCAR-5 ovarian) greater than 25 µM and a TGI (OVCAR-5 ovarian) greater than 25 µM. It also gave a GI50 (NCI-H522 lung) greater than 25 µM, a TGI (NCI-H522 lung) greater than 25 µM and a GI50 (OVCAR-4 ovarian) greater than 25 µM. For the same molecule, the TGI (OVCAR-4 ovarian) was greater than 25 µM, the GI50 (HCT-15 colon) was greater than 25 µM and the TGI (HCT-15 colon) was greater than 25 µM. It also gave a GI50 (MDA-MB-231 breast) greater than 25 µM, a TGI (MDA-MB-231 breast) greater than 25 µM and a GI50 (HT29 colon) greater than 25 µM. It also gave a TGI (HT29 colon) greater than 25 µM, a GI50 (HCT-116 colon) greater than 25 µM and a TGI (HCT-116 colon) greater than 25 µM. The GI50 (RPMI-8226 leukemia) was greater than 25 µM, the TGI (RPMI-8226 leukemia) was greater than 25 µM and the GI50 (HOP-62 NSCLC) was greater than 25 µM. The TGI (HOP-62 NSCLC) was greater than 25 µM, the GI50 (MOLT-4 leukemia) was greater than 25 µM and the TGI (MOLT-4 leukemia) was greater than 25 µM. The GI50 (NCI/ADR-RES ovarian) was greater than 25 µM, the TGI (NCI/ADR-RES ovarian) was greater than 25 µM and the GI50 (NCI-H226 lung) was greater than 25 µM. For the same molecule, the TGI (NCI-H226 lung) was greater than 25 µM, the GI50 (A498 renal) was greater than 18.3 µM and the TGI (A498 renal) was greater than 25 µM. It also gave a GI50 (A549 NSCLC) greater than 25 µM, a TGI (A549 NSCLC) greater than 25 µM and a GI50 (MALME-3M melanoma) greater than 25 µM. For the same molecule, the TGI (MALME-3M melanoma) was greater than 25 µM, the GI50 (OVCAR-8 ovarian) was greater than 25 µM and the TGI (OVCAR-8 ovarian) was greater than 25 µM. The GI50 (U251 CNS) was greater than 25 µM, the TGI (U251 CNS) was greater than 25 µM and the GI50 (MDA-MB-435) was greater than 25 µM. The TGI (MDA-MB-435) was greater than 25 µM, the GI50 (LOX IMVI melanoma) was greater than 25 µM and the TGI (LOX IMVI melanoma) was greater than 25 µM. It also gave a GI50 (NCI-H460 lung) greater than 25 µM, a TGI (NCI-H460 lung) greater than 25 µM and a GI50 (SR leukemia) of 12.6 µM. For the same molecule, the TGI (SR leukemia) was greater than 25 µM, the GI50 (MCF7 breast) was greater than 25 µM and the TGI (MCF7 breast) was greater than 25 µM. The GI50 (UACC-257 melanoma) was greater than 25 µM, the TGI (UACC-257 melanoma) was greater than 25 µM and the GI50 (SNB-19 CNS) was greater than 25 µM. For the same molecule, the TGI (SNB-19 CNS) was greater than 25 µM, the GI50 (SF-295 CNS) was greater than 25 µM and the TGI (SF-295 CNS) was greater than 25 µM. It also gave a GI50 (SK-OV-3 ovarian) greater than 25 µM, a TGI (SK-OV-3 ovarian) greater than 25 µM and a GI50 (HOP-92 NSCLC) greater than 11.3 µM. The TGI (HOP-92 NSCLC) was greater than 25 µM, the GI50 (M14 melanoma) was greater than 25 µM and the TGI (M14 melanoma) was greater than 25 µM. For the same molecule, the GI50 (SW-620 colon) was greater than 25 µM, the TGI (SW-620 colon) was greater than 25 µM and the GI50 (CAKI-1 renal) was greater than 21.2 µM. It also gave a TGI (CAKI-1 renal) greater than 25 µM, a GI50 (SK-MEL-2 melanoma) greater than 25 µM and a TGI (SK-MEL-2 melanoma) greater than 25 µM. The GI50 (DU-145 prostate) was greater than 25 µM, the TGI (DU-145 prostate) was greater than 25 µM and the GI50 (NCI-H23 lung) was greater than 25 µM. It also gave a TGI (NCI-H23 lung) greater than 25 µM, a GI50 (786-0 renal) greater than 25 µM and a TGI (786-0 renal) greater than 25 µM. The GI50 (SK-MEL-28 melanoma) was greater than 25 µM, the TGI (SK-MEL-28 melanoma) was greater than 25 µM and the GI50 (KM12 colon) was greater than 25 µM. The TGI (KM12 colon) was greater than 25 µM, the GI50 (SN12C renal) was greater than 25 µM and the TGI (SN12C renal) was greater than 25 µM. It also gave a GI50 (COLO 205 colon) greater than 25 µM, a TGI (COLO 205 colon) greater than 25 µM and a GI50 (UO-31 renal) greater than 25 µM. The TGI (UO-31 renal) was greater than 25 µM, the GI50 (IGROV1 ovarian) was greater than 25 µM and the TGI (IGROV1 ovarian) was greater than 25 µM. It also gave a GI50 (PC-3 prostate) greater than 25 µM, a TGI (PC-3 prostate) greater than 25 µM and a GI50 (OVCAR-3 ovarian) greater than 25 µM. The TGI (OVCAR-3 ovarian) was greater than 25 µM, the GI50 (SF-539 CNS) was greater than 25 µM and the TGI (SF-539 CNS) was greater than 25 µM. It also gave a GI50 (SNB-75 CNS) greater than 25 µM, a TGI (SNB-75 CNS) greater than 25 µM and a GI50 (RXF 393 renal) greater than 25 µM. It also gave a TGI (RXF 393 renal) greater than 25 µM, a GI50 (SF-268 CNS) greater than 25 µM and a TGI (SF-268 CNS) greater than 25 µM. The GI50 (CCRF-CEM leukemia) was greater than 25 µM, the TGI (CCRF-CEM leukemia) was greater than 25 µM and the GI50 (ACHN renal) was greater than 25 µM. For the same molecule, the TGI (ACHN renal) was greater than 25 µM, the GI50 (BT-549 breast) was greater than 25 µM and the TGI (BT-549 breast) was greater than 25 µM. It also gave a GI50 (UACC-62 melanoma) greater than 25 µM, a TGI (UACC-62 melanoma) greater than 25 µM and a GI50 (HS 578T breast) greater than 25 µM. The TGI (HS 578T breast) was greater than 25 µM.
